Molecular target: Pancreatic triacylglycerol lipase (Sus scrofa) (UniProt P00591)
Test: Compound was tested for inhibition of porcine pancreatic lipase

Sequence of Pancreatic triacylglycerol lipase (Sus scrofa) (P00591 whole entry, looked up): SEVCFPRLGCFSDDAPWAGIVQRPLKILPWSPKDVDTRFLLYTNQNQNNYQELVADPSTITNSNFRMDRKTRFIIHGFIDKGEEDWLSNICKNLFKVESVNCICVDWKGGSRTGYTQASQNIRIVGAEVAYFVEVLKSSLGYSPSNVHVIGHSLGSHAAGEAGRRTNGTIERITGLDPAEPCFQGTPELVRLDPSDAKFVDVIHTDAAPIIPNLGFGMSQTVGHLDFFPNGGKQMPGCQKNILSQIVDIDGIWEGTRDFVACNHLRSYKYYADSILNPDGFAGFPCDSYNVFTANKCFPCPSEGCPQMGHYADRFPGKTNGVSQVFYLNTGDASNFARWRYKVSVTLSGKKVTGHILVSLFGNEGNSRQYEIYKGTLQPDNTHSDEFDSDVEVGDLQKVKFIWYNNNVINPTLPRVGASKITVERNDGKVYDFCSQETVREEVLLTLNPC

For `C=C1O[C@@H](C[C@H](CCCCCCCCCCC)OC(=O)[C@H](CC(C)C)NC=O)[C@@H]1CCCCCC`, the IC50 was 3.44 µM.
